From patent US9649298B2, “Cytotoxic substance for use in combination with radiotherapy in cancer treatment” (Fumedica AG, priority 2013, dated 2017)

Legend:
[1] = test system: U-87 MG human glioblastoma xenographs; assay: Tumor volume in U-87 MG human glioblastoma xenografts after microbeam radiation (fan-like array) and/or cisplatin; format: in vivo, Balb/c nude mice
glioblastoma tumor = assay: Glioblastoma tumor size after irradiation with 50x50 microbeam array (Example 2) followed by cisplatin; format: in vivo; conditions: Cisplatin administered within 30 min to 1 h after irradiation with 50x50 microbeam array
Text: In this example, CAM were irradiated at the biomedical beamline of ESRF. The generation and preparation of the microbeams occurred basically in the same manner as described in Example 1 according to a second preferred embodiment with the substantially circular cross-section of each microbeam. The difference here however is that behind the multi-slit collimator a second collimator (such as an Archer variable multi-slit collimator) was placed into the path of the first array of microbeams formed by the first collimator. […] A GafChromic radiochromic film type […] But in Example 2 the irradiation rather punctures the tissue. Therefore, the level of exposure of the irradiated tissue is even less lethal and results in a […] chemotherapeutic window (compared to FIG. 4).

N.N.[Cl][Pt][Cl] [Cisplatin, cisplatin]
tumor sizes after treatment (tumor volume, FIG. 8a) ([1]; double treatment (DT): Cisplatin administered after the MR procedure, within window of increased vascular permeability): progressive and significant decrease | tumor sizes after treatment (tumor volume, FIG. 8a) ([1]; only Cisplatin, single chemotherapeutic treatment, no irradiation): gradual increase in size | glioblastoma tumor sizes after treatment (glioblastoma tumor): progressive and significant decrease
